Assay results reported in patent US7795259B2, “Pyrrolopyrazines and pyrazolopyrazines useful as inhibitors of protein kinases” (Vertex Pharmaceuticals Incorporated, priority 2004, dated 2010).

Molecular target: T1, full length Aurora-A (AA 1-403) (Homo sapiens, UniProt O14965)
T1 sequence (O14965 1-403): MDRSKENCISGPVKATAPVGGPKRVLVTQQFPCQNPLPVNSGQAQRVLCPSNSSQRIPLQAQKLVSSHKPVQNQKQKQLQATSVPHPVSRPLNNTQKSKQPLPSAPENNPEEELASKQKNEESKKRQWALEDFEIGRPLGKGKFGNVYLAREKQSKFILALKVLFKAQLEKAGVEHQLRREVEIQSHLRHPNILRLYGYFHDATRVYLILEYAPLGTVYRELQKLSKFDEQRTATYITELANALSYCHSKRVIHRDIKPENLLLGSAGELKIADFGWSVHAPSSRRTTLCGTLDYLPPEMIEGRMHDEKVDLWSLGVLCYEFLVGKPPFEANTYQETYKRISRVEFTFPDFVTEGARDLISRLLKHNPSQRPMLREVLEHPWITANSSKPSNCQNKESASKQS
Experiment: AuroraA Inhibition Assay (coupled enzyme system)
Format: biochemical
Conditions: 200 μM ATP, 800 μM peptide LRRASLG, 35 nM Aurora-A, 30° C.
Procedure: Compounds were screened for their ability to inhibit full length Aurora-A (AA 1-403) activity using a standard coupled enzyme system (Fox et al., Protein Sci., 7, pp. 2249 (1998)). Reactions were carried out in a solution containing 100 mM HEPES (pH 7.5), 10 mM MgCl2, 25 mM NaCl, 300 μM NADH, 1 mM DTT and 3% DMSO. Final substrate concentrations in the assay were 200 μM ATP (Sigma Chemicals, St Louis, Mo.) and 800 μM peptide (LRRASLG, American Peptide, Sunnyvale, Calif.). Reactions were carried out at 30° C. and 35 nM Aurora-A. Final concentrations of the components of the coupled enzyme system were 2.5 mM phosphoenolpyruvate, 200 μM NADH, 60 μg/ml pyruvate kinase and 20 μg/ml lactate dehydrogenase.
An assay stock buffer solution was prepared containing all of the reagents listed above with the exception of ATP and the test compound of interest. The assay stock buffer solution (60 μl) was incubated in a 96 well plate with 2 μl of the test compound of interest at final concentrations spanning 0.002 μM to 30 μM at 30° C. for 10 min. […] Rates of reaction were obtained using a Molecular Devices Spectramax plate reader (Sunnyvale, Calif.) over 10 min at 30° C. The Ki values were determined from the rate data as a function of inhibitor concentration using computerized nonlinear regression (Prism 3.0, Graphpad Software, San Diego, Calif.).

Row | Ki [nM] | SMILES
1 | < 200 | Clc1cnc2[nH]cc(-c3cccc(Br)c3)c2n1 [Compound I-1, 7-(3-Bromo-phenyl)-2-chloro-5H-pyrrolo[2,3-b]pyrazine]
2 | < 200 | C[C@H](Nc1nc(-c2c[nH]c3ncc(Cl)nc23)ncc1F)c1ccc(F)cc1 [Compound I-28]
